Our source for the IC50 values is patent US20240228535A1 (priority 2022, published 2024).

This assay concerns the target SARS2 coronavirus 3CL protease (Severe acute respiratory syndrome coronavirus 2, UniProt P0DTD1). Put plainly: biochemical. Particulars: 5 nM enzyme, 30 min pre-incubation with compound, 15 μM peptide substrate, 4 h at room temperature; read-out: FRET Potency (nM); IC50 values in the SARS2 3CLPro FRET assay.
Take `CNC(=O)C(=O)[C@H](C[C@@H]1C[C@@H](C)NC1=O)NC(=O)c1cc(F)c(F)cc1NC(=O)OC1CC1` [Example 141, cyclopropyl N-[4,5-difluoro-2-[[(1S)-3-(methylamino)-1-[[(3S,5R)-5-methyl-2-oxo-pyrrolidin-3-yl]methyl]-2,3-dioxo-propyl]carbamoyl]phenyl] carbamate]: the IC50 worked out at 19.8 nM.

Regarding `C[C@@H]1C[C@@H](C[C@H](NC(=O)c2cc(C(F)F)ccc2NC(=O)c2cccc(C(F)(F)F)c2)C(=O)C(=O)NC2CC2)C(=O)N1` [Example 44, N-[(1S)-3-(cyclopropylamino)-1-[[(3S,5R)-5-methyl-2-oxo-pyrrolidin-3-yl]methyl]-2,3-dioxo-propyl]-5-(difluoromethyl)-2-[[3-(trifluoromethyl)benzoyl]amino]benzamide], the IC50 was determined as 9.4 nM.

As for `CNC(=O)C(=O)[C@H](C[C@@H]1CCNC1=O)NC(=O)c1cc(Cl)ccc1NC(=O)C1CC1C(F)(F)F` (stereo partly drawn) [Example 175], the IC50 amounted to 2.8 nM.

For `CNC(=O)C(=O)[C@H](C[C@@H]1C[C@@H](C)NC1=O)NC(=O)c1cc(Cl)ccc1NC(=O)C1CC1` [Example 122], the IC50 was 8.1 nM.

In the case of `C[C@@H]1C[C@@H](C[C@H](NC(=O)c2cc(Cl)ccc2NC(=O)C(C)(C)O)C(=O)C(=O)NC2CC2)C(=O)N1` [Example 165, 5-chloro-N-[(1S)-3-(cyclopropylamino)-1-[[(3S,5R)-5-methyl-2-oxo-pyrrolidin-3-yl]methyl]-2,3-dioxo-propyl]-2-[(2-hydroxy-2-methyl-propanoyl)amino]benzamide], the IC50 is 6.3 nM.

Take `C[C@@H]1C[C@@H](C[C@H](NC(=O)c2cc(Cl)ccc2NC(=O)C2(C(F)(F)F)CC2)C(=O)C(=O)NC2CC2)C(=O)N1` [Example 1, 5-chloro-N—((S)-4-(cyclopropylamino)-1-((3S,5R)-5-methyl-2-oxopyrrolidin-3-yl)-3,4 dioxobutan-2-yl)-2-(1-(trifluoromethyl)cyclopropane-1-carboxamido)benzamide]: the IC50 was 7.5 nM.

Turning to `C[C@@H]1C[C@@H](C[C@H](NC(=O)c2cc(Cl)ccc2NC(=O)c2cccc(C(F)(F)F)n2)C(=O)C(=O)NC2CC2)C(=O)N1` [Example 40], the IC50 is 10 nM.

As for `CNC(=O)C(=O)[C@H](C[C@@H]1C[C@@H](C)NC1=O)NC(=O)c1cc(Cl)ccc1NC(=O)CCC(F)(F)F` [Example 178, 5-chloro-N-[(1S)-3-(methylamino)-1-[[(3S,5R)-5-methyl-2-oxo-pyrrolidin-3-yl]methyl]-2,3-dioxo-propyl]-2-(4,4,4-trifluorobutanoylamino) benzamide], the IC50 was found to be 7 nM.

Take `CNC(=O)C(=O)[C@H](C[C@@H]1C[C@@H](C)NC1=O)NC(=O)c1cc(Cl)cnc1NC(=O)OC` [Example 119, methyl N-[5-chloro-3-[[(1S)-3-(methylamino)-1-[[(3S,5R)-5-methyl-2-oxo-pyrrolidin-3-yl]methyl]-2,3-dioxo-propyl]carbamoyl]-2-pyridyl]carbamate]: the IC50 amounted to 5.6 nM.

Consider `CNC(=O)C(=O)[C@H](C[C@@H]1C[C@@H](C)NC1=O)NC(=O)c1cc(Cl)ccc1NC(=O)C1CCCC(F)(F)C1` (single isomer, unassigned) [Example 198], for which the IC50 came to 5.5 nM.

`CNC(=O)C(=O)[C@H](C[C@@H]1C[C@@H](C)NC1=O)NC(=O)c1cc(Cl)ccc1NC(=O)c1cc(C(F)(F)F)ccn1` [Example 72, N-[4-chloro-2-[[(1S)-3-(methylamino)-1-[[(3S,5R)-5-methyl-2-oxo-pyrrolidin-3-yl]methyl]-2,3-dioxo-propyl]carbamoyl]phenyl]-4-(trifluoromethyl)pyridine-2-carboxamide]: the IC50 was 6.3 nM.

As to `COC(=O)Nc1ccc(Cl)cc1C(=O)N[C@@H](C[C@@H]1C[C@@H](C)NC1=O)C(=O)C(N)=O` [Example 107, methyl N-[2-[[(1S)-3-amino-1-[[(3S,5R)-5-methyl-2-oxo-pyrrolidin-3-yl]methyl]-2,3-dioxo-propyl]carbamoyl]-4-chloro-phenyl]carbamate], the IC50 amounted to 12.6 nM.

Regarding `CNC(=O)C(=O)[C@H](C[C@@H]1C[C@@H](C)NC1=O)NC(=O)c1cc(Cl)ccc1NC(=O)C1CC1C(F)(F)F` (stereo partly drawn) [Example 190, 5-chloro-N-[(1S)-3-(methylamino)-1-[[(3S,5R)-5-methyl-2-oxo-pyrrolidin-3-yl]methyl]-2,3-dioxo-propyl]-2-[[2-(trifluoromethyl)cyclopropane-carbonyl]amino]benzamide], the IC50 amounted to 3.1 nM.

Turning to `O=C(NC1CC1)C(=O)[C@H](C[C@@H]1CCNC1=O)NC(=O)c1cc(Cl)ccc1NC(=O)C1(CC(F)(F)F)CC1` [Example 36, 5-chloro-N-[(1S)-3-(cyclopropylamino)-2,3-dioxo-1-[[(3S)-2-oxopyrrolidin-3-yl]methyl]propyl]-2-[[1-(2,2,2-trifluoroethyl)cyclopropane-carbonyl]amino]benzamide], the IC50 was determined as 10.7 nM.

On to `CNC(=O)C(=O)[C@H](C[C@@H]1C[C@@H](C)NC1=O)NC(=O)c1cc(Cl)ccc1NC(=O)c1nccc(C(F)(F)F)n1` [Example 216], for which the IC50 stood at 9.6 nM.

As for `CNC(=O)C(=O)[C@H](C[C@@H]1C[C@@H](C)NC1=O)NC(=O)c1cc(Cl)ccc1NC(=O)C1CCCC1(F)F` (stereo partly drawn) [Example 185, 5-chloro-2-[(2,2-difluorocyclopentanecarbonyl)amino]-N-[(1S)-3-(methylamino)-1-[[(3S,5R)-5-methyl-2-oxo-pyrrolidin-3-yl]methyl]-2,3-dioxo-propyl]benzamide], the IC50 was determined as 9 nM.

For `O=C(NC1CC1)C(=O)[C@H](C[C@@H]1CCCNC1=O)NC(=O)c1cc(Cl)ccc1NC(=O)c1ccnc(C(F)(F)F)c1` [Example 234, N-[4-chloro-2-[[(1S)-3-(cyclopropylamino)-2,3-dioxo-1-[[(3S)-2-oxo-3-piperidyl]methyl]propyl]carbamoyl]phenyl]-2-(trifluoromethyl)pyridine-4-carboxamide], the IC50 was determined as 17.1 nM.

For the molecule `O=C(NC1CC1)C(=O)[C@H](C[C@@H]1CCNC1=O)NC(=O)c1cc(Cl)ccc1NC(=O)c1cncc(C(F)(F)F)c1` [Example 71, N-[4-chloro-2-[[(1S)-3-(cyclopropylamino)-2,3-dioxo-1-[[(3S)-2-oxopyrrolidin-3-yl]methyl]propyl]carbamoyl]phenyl]-5-(trifluoromethyl)pyridine-3-carboxamide], the IC50 worked out at 6.6 nM.

Regarding `O=C(Nc1ccc(Cl)cc1C(=O)N[C@@H](C[C@@H]1CCNC1=O)C(=O)C(=O)NC1CC1)OC1CCC1` [Example 161, cyclobutyl N-[4-chloro-2-[[(1S)-3-(cyclopropylamino)-2,3-dioxo-1-[[(3S)-2-oxopyrrolidin-3-yl]methyl]propyl]carbamoyl]phenyl]carbamate], the IC50 amounted to 5.9 nM.

`C[C@@H]1C[C@@H](C[C@H](NC(=O)c2cc(Cl)ccc2NC(=O)N2CCOCC2)C(=O)C(=O)NC2CC2)C(=O)N1` [Example 194, N-[4-chloro-2-[[(1S)-3-(cyclopropylamino)-1-[[(3S,5R)-5-methyl-2-oxo-pyrrolidin-3-yl]methyl]-2,3-dioxo-propyl]carbamoyl]phenyl] morpholine-4-carboxamide]: the IC50 was found to be 6.8 nM.

Turning to `C[C@@H]1C[C@@H](C[C@H](NC(=O)c2cc(Cl)cnc2NC(=O)C2CCC(F)(F)CC2)C(=O)C(=O)NC2CC2)C(=O)N1` [Example 39, 5-chloro-N-[(1S)-3-(cyclopropylamino)-1-[[(3S,5R)-5-methyl-2-oxo-pyrrolidin-3-yl]methyl]-2,3-dioxo-propyl]-2-[(4,4-difluorocyclohexanecarbonyl)amino]pyridine-3-carboxamide], the IC50 was found to be 10.3 nM.

`CNC(=O)C(=O)[C@H](C[C@@H]1C[C@@H](C)NC1=O)NC(=O)c1cc(Cl)ccc1NC(=O)C1CC1C(F)(F)F` (stereo partly drawn) [Example 189, 5-chloro-N-[(1S)-3-(methylamino)-1-[[(3S,5R)-5-methyl-2-oxo-pyrrolidin-3-yl]methyl]-2,3-dioxo-propyl]-2-[[2-(trifluoromethyl)cyclopropane-carbonyl]amino]benzamide]: the IC50 came to 3.5 nM.

As to `CC(OC(=O)Nc1ccc(Cl)cc1C(=O)N[C@@H](C[C@@H]1C[C@@H](C)NC1=O)C(=O)C(=O)NC1CC1)C(F)(F)F` (stereo partly drawn) [Example 210, (2,2,2-trifluoro-1-methyl-ethyl) N-[4-chloro-2-[[(1S)-3-(cyclopropylamino)-1-[[(3S,5R)-5-methyl-2-oxo-pyrrolidin-3-yl]methyl]-2,3-dioxo-propyl]carbamoyl]phenyl] carbamate], the IC50 is 7.8 nM.

In the case of `CNC(=O)C(=O)[C@H](C[C@@H]1C[C@@H](C)NC1=O)NC(=O)c1cc(Cl)ccc1NC(=O)C12CC(C(F)(F)F)(C1)C2` [Example 46, N-[4-chloro-2-[[(1S)-3-(methylamino)-1-[[(3S,5R)-5-methyl-2-oxo-pyrrolidin-3-yl]methyl]-2,3-dioxo-propyl]carbamoyl]phenyl]-3-(trifluoromethyl)bicyclo[1.1.1] pentane-1-carboxamide], the IC50 came to 8.9 nM.

`CNC(=O)C(=O)[C@H](C[C@@H]1C[C@@H](C)NC1=O)NC(=O)c1cc(Cl)ccc1NC(=O)C(C)C` [Example 125, 5-chloro-N-[(1S)-3-(methylamino)-1-[[(3S,5R)-5-methyl-2-oxo-pyrrolidin-3-yl]methyl]-2,3-dioxo-propyl]-2-(2-methylpropanoylamino) benzamide]: the IC50 came out at 5.6 nM.

`C[C@@H]1C[C@@H](C[C@H](NC(=O)c2cc(Cl)ccc2NC(=O)CCC(F)(F)F)C(=O)C(=O)NCc2ccccc2)C(=O)N1` [Example 115, N—((S)-4-(benzylamino)-1-((3S,5R)-5-methyl-2-oxopyrrolidin-3-yl)-3,4-dioxobutan-2-yl)-5-chloro-2-(4,4,4-trifluorobutanamido)benzamide]: the IC50 was 11.5 nM.

Regarding `CNC(=O)C(=O)[C@H](C[C@@H]1C[C@@H](C)NC1=O)NC(=O)c1cc(Cl)ccc1NC(=O)C1CC(F)(F)C1` [Example 21, 5-chloro-2-[(3,3-difluorocyclobutanecarbonyl)amino]-N-[(1S)-3-(methylamino)-1-[[(3S,5R)-5-methyl-2-oxo-pyrrolidin-3-yl]methyl]-2,3-dioxo-propyl]benzamide], the IC50 stood at 24.9 nM.
